{"source": "the supplement of paper PMC10307832", "assay_in_all_cases": "relative viability (nuclei count vs DMSO), 5 days (fraction); higher = more cells survive", "key": {"NCI-H596": {"tested_on": "NCI-H596", "outline": "(§1)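 Cells from lung cancer lines were seeded into 1536-well plates and, one day later, dosed by pin tool. Treatments were either a single drug or a fixed dose of an anchor drug with five library-drug doses (not always all listed) in √10 steps. After 5 days, nuclei were stained in a one-step fixation (final 0.05% Triton X-100, 1% formaldehyde, 1 ug/ml Hoechst) and counted on 4× images, and relative viability is the treated-to-vehicle nuclei ratio, as the median of duplicate plates.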"}, "PC-14": {"tested_on": "PC-14", "outline": "as §1"}, "NCI-H1355": {"tested_on": "NCI-H1355", "outline": "as §1"}, "NCI-H1792": {"tested_on": "NCI-H1792", "outline": "as §1"}, "NCI-H727": {"tested_on": "NCI-H727", "outline": "as §1"}, "RERF-LC-KJ": {"tested_on": "RERF-LC-KJ", "outline": "as §1"}, "NCI-H520": {"tested_on": "NCI-H520", "outline": "as §1"}, "NCI-H460": {"tested_on": "NCI-H460", "outline": "as §1"}, "NCI-H2347": {"tested_on": "NCI-H2347", "outline": "as §1"}, "NCI-H2170": {"tested_on": "NCI-H2170", "outline": "as §1"}, "LXF-289": {"tested_on": "LXF-289", "outline": "as §1"}, "SK-MES-1": {"tested_on": "SK-MES-1", "outline": "as §1"}, "NCI-H322M": {"tested_on": "NCI-H322M", "outline": "as §1"}, "NCI-H1755": {"tested_on": "NCI-H1755", "outline": "as §1"}, "NCI-H650": {"tested_on": "NCI-H650", "outline": "as §1"}, "NCI-H1651": {"tested_on": "NCI-H1651", "outline": "as §1"}, "NCI-H661": {"tested_on": "NCI-H661", "outline": "as §1"}, "NCI-H1563": {"tested_on": "NCI-H1563", "outline": "as §1"}, "NCI-H3122": {"tested_on": "NCI-H3122", "outline": "as §1"}, "NCI-H1915": {"tested_on": "NCI-H1915", "outline": "as §1"}}, "data": [{"smiles": "Oc1nc(-c2ccc(C(F)(F)F)cc2)nc2c1CSCC2", "note": "[XAV939] + CS(=O)(=O)CCNCc1ccc(-c2ccc3ncnc(Nc4ccc(OCc5cccc(F)c5)c(Cl)c4)c3c2)o1 [Lapatinib] (partner 2 µM)", "values": [{"measurement": "relative viability", "setting": "NCI-H596; first compound 0.08 µM", "result": 1.21}, {"measurement": "relative viability", "setting": "NCI-H596; first compound 0.253 µM", "result": 1.12}, {"measurement": "relative viability", "setting": "NCI-H596; first compound 0.8 µM", "result": 1.1}, {"measurement": "relative viability", "setting": "NCI-H596; first compound 2.53 µM", "result": 0.656}, {"measurement": "relative viability", "setting": "PC-14; first compound 0.08 µM", "result": 0.301}, {"measurement": "relative viability", "setting": "PC-14; first compound 0.253 µM", "result": 0.307}, {"measurement": "relative viability", "setting": "PC-14; first compound 0.8 µM", "result": 0.262}, {"measurement": "relative viability", "setting": "PC-14; first compound 2.53 µM", "result": 0.266}, {"measurement": "relative viability", "setting": "NCI-H1355; first compound 0.08 µM", "result": 1.02}, {"measurement": "relative viability", "setting": "NCI-H1355; first compound 0.253 µM", "result": 0.857}, {"measurement": "relative viability", "setting": "NCI-H1355; first compound 0.8 µM", "result": 0.875}, {"measurement": "relative viability", "setting": "NCI-H1355; first compound 2.53 µM", "result": 0.729}, {"measurement": "relative viability", "setting": "NCI-H1792; first compound 0.08 µM", "result": 1.14}, {"measurement": "relative viability", "setting": "NCI-H1792; first compound 0.253 µM", "result": 0.523}, {"measurement": "relative viability", "setting": "NCI-H1792; first compound 0.8 µM", "result": 0.805}, {"measurement": "relative viability", "setting": "NCI-H1792; first compound 2.53 µM", "result": 0.806}, {"measurement": "relative viability", "setting": "NCI-H727; first compound 0.08 µM", "result": 1.14}, {"measurement": "relative viability", "setting": "NCI-H727; first compound 0.253 µM", "result": 0.589}, {"measurement": "relative viability", "setting": "NCI-H727; first compound 0.8 µM", "result": 0.759}, {"measurement": "relative viability", "setting": "NCI-H727; first compound 2.53 µM", "result": 0.877}, {"measurement": "relative viability", "setting": "RERF-LC-KJ; first compound 0.08 µM", "result": 0.833}, {"measurement": "relative viability", "setting": "RERF-LC-KJ; first compound 0.253 µM", "result": 0.702}, {"measurement": "relative viability", "setting": "RERF-LC-KJ; first compound 0.8 µM", "result": 0.672}, {"measurement": "relative viability", "setting": "RERF-LC-KJ; first compound 2.53 µM", "result": 0.609}, {"measurement": "relative viability", "setting": "NCI-H520; first compound 0.08 µM", "result": 0.83}, {"measurement": "relative viability", "setting": "NCI-H520; first compound 0.253 µM", "result": 0.78}, {"measurement": "relative viability", "setting": "NCI-H520; first compound 0.8 µM", "result": 0.792}, {"measurement": "relative viability", "setting": "NCI-H520; first compound 2.53 µM", "result": 0.682}, {"measurement": "relative viability", "setting": "NCI-H460; first compound 0.08 µM", "result": 1.38}, {"measurement": "relative viability", "setting": "NCI-H460; first compound 0.253 µM", "result": 0.723}, {"measurement": "relative viability", "setting": "NCI-H460; first compound 0.8 µM", "result": 0.91}, {"measurement": "relative viability", "setting": "NCI-H460; first compound 2.53 µM", "result": 0.937}, {"measurement": "relative viability", "setting": "NCI-H2347; first compound 0.08 µM", "result": 0.944}, {"measurement": "relative viability", "setting": "NCI-H2347; first compound 0.253 µM", "result": 0.708}, {"measurement": "relative viability", "setting": "NCI-H2347; first compound 0.8 µM", "result": 0.805}, {"measurement": "relative viability", "setting": "NCI-H2347; first compound 2.53 µM", "result": 0.672}, {"measurement": "relative viability", "setting": "NCI-H2170; first compound 0.08 µM", "result": 0.259}, {"measurement": "relative viability", "setting": "NCI-H2170; first compound 0.253 µM", "result": 0.263}, {"measurement": "relative viability", "setting": "NCI-H2170; first compound 0.8 µM", "result": 0.267}, {"measurement": "relative viability", "setting": "NCI-H2170; first compound 2.53 µM", "result": 0.261}, {"measurement": "relative viability", "setting": "LXF-289; first compound 0.08 µM", "result": 0.898}, {"measurement": "relative viability", "setting": "LXF-289; first compound 0.253 µM", "result": 0.826}, {"measurement": "relative viability", "setting": "LXF-289; first compound 0.8 µM", "result": 0.897}, {"measurement": "relative viability", "setting": "LXF-289; first compound 2.53 µM", "result": 0.919}, {"measurement": "relative viability", "setting": "SK-MES-1; first compound 0.08 µM", "result": 0.499}, {"measurement": "relative viability", "setting": "SK-MES-1; first compound 0.253 µM", "result": 0.389}, {"measurement": "relative viability", "setting": "SK-MES-1; first compound 0.8 µM", "result": 0.424}, {"measurement": "relative viability", "setting": "SK-MES-1; first compound 2.53 µM", "result": 0.406}, {"measurement": "relative viability", "setting": "NCI-H322M; first compound 0.08 µM", "result": 0.602}, {"measurement": "relative viability", "setting": "NCI-H322M; first compound 0.253 µM", "result": 0.57}, {"measurement": "relative viability", "setting": "NCI-H322M; first compound 0.8 µM", "result": 0.599}, {"measurement": "relative viability", "setting": "NCI-H322M; first compound 2.53 µM", "result": 0.426}, {"measurement": "relative viability", "setting": "NCI-H1755; first compound 0.08 µM", "result": 0.92}, {"measurement": "relative viability", "setting": "NCI-H1755; first compound 0.253 µM", "result": 0.87}, {"measurement": "relative viability", "setting": "NCI-H1755; first compound 0.8 µM", "result": 0.896}, {"measurement": "relative viability", "setting": "NCI-H1755; first compound 2.53 µM", "result": 0.955}, {"measurement": "relative viability", "setting": "NCI-H650; first compound 0.08 µM", "result": 0.868}, {"measurement": "relative viability", "setting": "NCI-H650; first compound 0.253 µM", "result": 0.957}, {"measurement": "relative viability", "setting": "NCI-H650; first compound 0.8 µM", "result": 1}, {"measurement": "relative viability", "setting": "NCI-H650; first compound 2.53 µM", "result": 0.893}, {"measurement": "relative viability", "setting": "NCI-H1651; first compound 0.08 µM", "result": 0.822}, {"measurement": "relative viability", "setting": "NCI-H1651; first compound 0.253 µM", "result": 0.758}, {"measurement": "relative viability", "setting": "NCI-H1651; first compound 0.8 µM", "result": 0.904}, {"measurement": "relative viability", "setting": "NCI-H1651; first compound 2.53 µM", "result": 0.857}, {"measurement": "relative viability", "setting": "NCI-H661; first compound 0.08 µM", "result": 0.553}, {"measurement": "relative viability", "setting": "NCI-H661; first compound 0.253 µM", "result": 0.482}, {"measurement": "relative viability", "setting": "NCI-H661; first compound 0.8 µM", "result": 0.595}, {"measurement": "relative viability", "setting": "NCI-H661; first compound 2.53 µM", "result": 0.372}, {"measurement": "relative viability", "setting": "NCI-H1563; first compound 0.08 µM", "result": 1.15}, {"measurement": "relative viability", "setting": "NCI-H1563; first compound 0.253 µM", "result": 0.852}, {"measurement": "relative viability", "setting": "NCI-H1563; first compound 0.8 µM", "result": 0.809}, {"measurement": "relative viability", "setting": "NCI-H1563; first compound 2.53 µM", "result": 0.773}, {"measurement": "relative viability", "setting": "NCI-H3122; first compound 0.08 µM", "result": 1.01}, {"measurement": "relative viability", "setting": "NCI-H3122; first compound 0.253 µM", "result": 0.95}, {"measurement": "relative viability", "setting": "NCI-H3122; first compound 0.8 µM", "result": 1.01}, {"measurement": "relative viability", "setting": "NCI-H3122; first compound 2.53 µM", "result": 1.01}, {"measurement": "relative viability", "setting": "NCI-H1915; first compound 0.08 µM", "result": 1.13}, {"measurement": "relative viability", "setting": "NCI-H1915; first compound 0.253 µM", "result": 0.934}, {"measurement": "relative viability", "setting": "NCI-H1915; first compound 0.8 µM", "result": 1.05}, {"measurement": "relative viability", "setting": "NCI-H1915; first compound 2.53 µM", "result": 0.993}]}]}
